Test results taken from patent publication US20240390484A1 (priority 2022, published 2024).

What was measured:
BHK-21 cells = type: cell-based; settings: ready-to-use S2P RNA, 4 μg, 48 hours post transfection; 48/40.5/10/1.5 mol %
[1] = Particle size and polydispersity index (PDI) by Dynamic Light Scattering; type: physicochemical; settings: for “Ready-to-use” S2P RNA formulation PDI / “Ready-to-use” S2P RNA formulation Size: 48/40.5/10/1.5 mol %, blank-LNP added to lyophilized S2P RNA (55 ug/vial), N/P 7; for Blank-LNP PDI / Blank-LNP Size: 48/40.5/10/1.5 mol % ionizable lipid/cholesterol/DSPC/DMG-PEG
Protocol: (§1) Lipid nanoparticles (LNPs) were formed or formulated by rapid mixing of an ethanol phase and an aqueous phase using a microfluidic device. The aqueous phase included a 50 mM citrate buffer (pH 5.5). The ethanol phase included an ionizable lipid (as described herein), cholesterol (Jiangsu Southeast Nanomaterials), 1,2-diastearoyl-sn-glycero-3-phosphocholine (DSPC) (Jiangsu Southeast Nanomaterials) and 1,2-dimyristoyl-rac-glycero-3-methoxypolyethylene glycol-2000 (DMG-PEG2000) (SINOPEG). A series of ionizable lipids were evaluated. These four lipid components were mixed at defined molar ratios in ethanol, for instance, at a molar ratio of 48:40.5:10:1.5 (ionizable lipid:cholesterol:DSPC:DMG-PEG2000). The generated LNP particles were purified in citrate buffer (containing sucrose) and characterized with respect to particle size, polydispersity index (PDI) and ionizable lipid concentration. The LNP solution was then diluted to the target concentration and stored at 2-8° C.
(§2) In the case of a filled LNP, for example, an LNP-encapsulated S-2P RNA liquid drug product, the preparation protocol is essentially the same, except that it was an aqueous solution of S-2P RNA in citrate buffer pH 5-6 that constitutes the aqueous phase for LNP formation. The LNP-encapsulated RNA formulation is also referred to as “RNA-LNP” in this disclosure. Regarding characterization, particle size and polydispersity index (PDI) of the RNA-LNP were determined by Dynamic Light Scattering (DLS); RNA encapsulation efficiency and concentration were determined by means of Ribogreen® assay and RNA purity was determined by agarose gel electrophoresis.
(§3) The “ready-to-use” RNA product was manufactured by transferring a predetermined amount of already formed LNP in solution to a sealed vial containing the lyophilized RNA composition, followed by mixing at room temperature. The amount of LNP added per vial (e.g., 30-100 μg RNA per vial) was determined based on the molar ionizable lipid:RNA (N/P) molar ratio of 7. In this disclosure, “ready-to-use” S-2P RNA formulations (also referred to as “LNP(S-2P RNA)”) containing 30-100 μg/mL S-2P RNA were prepared, and then characterized with respect to particle size, polydispersity index, as well as RNA concentration, complexation efficiency, and purity using the same methods as described above in Example 3.

[2] = RNA encapsulation/complexation efficiency by Ribogreen assay; type: physicochemical; settings: 48/40.5/10/1.5 mol %; blank-LNP added to lyophilized S2P RNA (55 ug/vial), N/P 7
Protocol: as §2, §3

[3] = Stability of blank-LNP at 2-8° C. (particle size, PDI); type: physicochemical; settings: blank-LNP 48/40.5/10/1.5 mol %
Protocol: as §1
Each generated blank-LNP formulation was added to and mixed with lyophilized S2P RNA, altogether yielding a series of “ready-to-use” S2P RNA test items containing the different ionizable lipids. The pharmaceutical characteristics (Table 3) and in vitro transfection efficiency (Table 4) of these “ready-to-use” RNA test items were compared head-to-head. In parallel, the stability profiles of these […] blank-LNP formulations (i.e. without RNA complexation) were assessed at 2-8° C. (see Table 5).
The generated fourteen blank-LNP formulations were characterized in terms of particle size and PDI, both at the end of manufacturing (T=0) and 8-week storage at 2-8° C. […] (defined as size increase ≤20 nm in 8 weeks), namely DMG-PEG2000 between at least 1-4 mol %, DSPC between at least 5-20 mol %, ionizable lipid between at least 30-70 mol % and cholesterol between at least 18.5-58.5 mol %.

Vero E6 cells = type: cell-based; settings: ready-to-use S2P RNA, 4 μg, 48 hours post transfection; 48/40.5/10/1.5 mol %

Row | Structure (SMILES) | RBD expression in BHK-21 cells (BHK-21 cells) | “Ready-to-use” S2P RNA formulation PDI [1] | “Ready-to-use” S2P RNA formulation Size [1] [nm] | Blank-LNP PDI [1] | Blank-LNP Size [1] [nm] | “Ready-to-use” S2P RNA formulation RNA complexation efficiency [2] [%] | Change in size (nm) vs. T0, T = 1 month [3] | PDI, T = 1 month [3] | Size, T = 1 month [3] [nm] | Change in size (nm) vs. T0, T = 2 weeks [3] | PDI, T = 2 weeks [3] | Size, T = 2 weeks [3] [nm] | PDI, T = 0 [3] | Size, T = 0 [3] [nm] | RBD expression in Vero E6 cells (Vero E6 cells)
1 | CCCCCC/C=C/COC(=O)CCCCCCCCC(CCCCCCCCC(=O)OC/C=C/CCCCCC)OC(=O)CCCN(C)C [Lipid #9] | 0.50 ng/mL | 0.18 | 280 | 0.09 | 207 | 34 | +22 nm | 0.10 | 229 | +7 nm | 0.05 | 214 | 0.09 | 207 | 0.16 ng/mL
2 | CCCCCCCCOC/C=C\COC(=O)CCCCCCCCC(CCCCCCCCC(=O)OC(CCCCCCCC)CCCCCCCC)OC(=O)CCCN(C)C (centres unmarked) [Lipid #12] | 0.19 ng/mL | 0.14 | 172 | 0.04 | 85 | 27 | +12 nm | 0.11 | 97 | +8 nm | 0.06 | 93 | 0.04 | 85 | <LOD
3 | CCCCCCCCCCC(CCCCCCCCCC)C(=O)OCCCCCCOc1ccc(OCCCCCCOC(=O)C(CCCCCCCCCC)CCCCCCCCCC)c(COC(=O)CCCN(C)C)c1 [Lipid #8] | <LOD | 0.11 | 130 | 0.13 | 86 | 34 | – | 0.17 | 90 | −3 nm | 0.07 | 83 | 0.13 | 86 | <LOD
4 | CC/C=C/CCCC(CCC/C=C/CC)OC(=O)CCCCCCCC(CCCCCCCC(=O)OC/C=C/CCCCCC)COC(=O)CCCN(C)C (centres unmarked) [Lipid #10] | 0.33 ng/mL | 0.21 | 204 | 0.05 | 91 | 34 | +29 nm | 0.21 | 120 | +16 nm | 0.11 | 107 | 0.05 | 91 | 0.25 ng/mL
